What all share (assay type): in vivo
Test [1] concerns bronchospasms elicited by intravenous injections of 5-hydroxytryptamine. Nature of the test: Bronchodilator activity, Konzett procedure, against 5-hydroxytryptamine. As to conditions: Cavia porcellus, three logarithmic cumulative intravenous doses, guinea pigs, read-out: ED50, spasmogenic agent 5-hydroxytryptamine. On the procedure: (§1) Bronchodilator activity was determined in guinea pigs against bronchospasms elicited by intravenous injections of 5-hydroxytryptamine, histamine or acetylcholine by the Konzett procedure. [See J. Lulling, P. Lievens, F. El Sayed and J. Prignot, Arzneimittel-Forschung, 18, 995 (1968)].
(§2) In the Table which follows bronchodilator activity for representative compounds of this invention against one or more of three spasmogenic agents is expressed as an ED50 determined from the results obtained with three logarithemic cumulative intravenous doses.

In test [2] the test system is bronchospasms elicited by intravenous injections of histamine. Nature of the test: Bronchodilator activity, Konzett procedure, against histamine. As to conditions: three logarithmic cumulative intravenous doses, guinea pigs. On the procedure:
as §1, §2

For test [3], the system named is bronchospasms elicited by intravenous injections of acetylcholine. Nature of the test: Bronchodilator activity, Konzett procedure, against acetylcholine. As to conditions: Cavia porcellus, three logarithmic cumulative intravenous doses, guinea pigs, read-out: ED50, spasmogenic agent acetyl choline. As for the experimental part: as §1, §2
Test [4] concerns ulcerogenic properties of indomethacin. Nature of the test: Protection against indomethacin-induced gastric ulcers in rats (ulcer score). The conditions noted are these: total oral dose 6.25 mg./kg. in two halves; indomethacin 20 mg./kg. s.c.; scale 0-4; control score 3.0; lowering by 0.5 or more = active. An excerpt:
The novel compounds of the present invention have potential utility as hypotensive agents, anti-ulcer agents, agents for the treatment of gastric hypersecretion and gasteric erosion, bronchodilators, abortifacients, agents for the induction of labor, agents for the induction of menses, fertility-controlling agents, central nervous system regulatory agents, salt and water-retention regulatory agents, diuretics, fat metabolic regulatory agents, serum-cholesterol lowering agents, anti-inflammatory agents and as agents for the inhibition of platelet aggregation. […] The compounds of this invention provide protection against the ulcerogenic properties of indomethacin. A measure of this utility which also measures potential anti-ulcer properties is the assay which follows.
Rats were starved for 48 hours (water was given ad libitum). Indomethacin (20 mg./kg. of body weight) was administered by the subcutaneous route and one-half the dose of the test compound was administered by gavage at the same time. After three hours, the second half of the test compound was administered also by gavage. Five hours after the administration of indomethacin the animals were decapitated and the stomachs removed. The stomachs were washed with distilled water, blotted on gauze, cut along the larger curvature, and the contents rinsed with distilled water. […]

Read-outs that look alike come from different tables or passages of the source.

In the case of `O=C(O)CCCCCCC1C(=O)C=CC1C=CC(O)CC1CCCC1` (stereo not drawn) [d,1-9-oxo-15-hydroxy-17,20-methano-10,13-trans-prostadienoic acid], the ED50 worked out at 0.0546 mg/kg in test [1]; 0.041 mg/kg in test [2] (Cavia porcellus, iv, read-out: ED50, spasmogenic agent histamine); 0.292 mg/kg in test [3].
In the case of `O=C(O)CCCCCCC1C(=O)CC(O)C1C=CC(O)CC1CCCC1` (stereo not drawn) [d,l 9-oxo-11α,15-dihydroxy-17,20-methano-13-trans-prostenoic acid], the ED50 in test [1] was 0.0018 mg/kg; in test [3], 0.0013 mg/kg.
As to `O=C(O)CCCCCCC1C(=O)CC(O)C1C=CC(O)CC1CCCC1` (stereo not drawn) [d,l 9-oxo-11α,15-epi-dihydroxy-17,20-methano-13-trans-prostenoic acid], in test [1] (no power of ten printed), the 50% effective dose (ED50) came to 0.228 mg/kg.
Consider `O=C(O)CCCCCCC1C(=O)CC(O)C1C=CC(O)CC1CCCC1` (stereo not drawn) [d,l 9-oxo-11α,15-epi-dihydroxy-17,20-methano-13-trans-proste] [d,l 9-oxo-11α,15-epi-dihydroxy-17,20-methano-13-trans-prostenoic acid], for which the “Score, Treated” value in test [4] turned out to be 2.3. In test [2] (listed as d,1-9-oxo-11α-15-epi-dihydroxy-17,20-methano-13-trans-prostenoic acid), the “ED50, spasmogenic agent histamine” value turned out to be 0.042 mg/kg.
`O=C(O)CCCCCCC1C(=O)CC(O)C1C=CC(O)CC1CCCC1` (stereo not drawn) [d,l 9-oxo-11α,15-dihydroxy-17,20-methano-13-trans-prostenoic] [d,l 9-oxo-11α,15-dihydroxy-17,20-methano-13-trans-prostenoic acid]: the “Score, Treated” value in test [4] was found to be 1.5. Further, the “ED50, spasmogenic agent histamine” value in test [2] (listed as d,1-9-oxo-11α-15-dihydroxy-17,20-methano-13-trans-prostenoic acid) turned out to be 0.000444 mg/kg.

Usually ED50 stands for the dose that gives a 50% effect, or the effect in half of the subjects.

The values are drawn from patent US4076947A, “Cycloalkyl and cycloalkenyl prostaglandin congeners” (American Cyanamid Company, priority 1977, dated 1978).
